Data on four molecules can be found in patent publication EP3046573B1, “AMYLIN ANALOGUES” (Zealand Pharma A/S, priority 2013, dated 2015).

Numbered stars: 1 amine (or outer) side, 2 acyl side, 3 side chain; on linkers, the order of the positions; unused ones are H or OH. Bridge positions count the residues as written; N and C are the ends. Square brackets hold non-standard residues; d marks the D form. Peptide text beside a SMILES is read from it. * marks the point of attachment. C20 diacid = O=C(O)CCCCCCCCCCCCCCCCCCC(=O)*; C18 diacid = O=C(O)CCCCCCCCCCCCCCCCC(=O)*; C16 diacid = O=C(O)CCCCCCCCCCCCCCC(=O)*; γGlu = O=C(O)[C@H](CCC(=O)[*:2])N[*:1]; NMeI = CC[C@H](C)[C@H](NC)C(=O)O; Myristoyl = CCCCCCCCCCCCCC(=O)*; Sar = CNCC(=O)O

Data set [1] in a line: Solubility assessment (turbidity absorbance at 325 nm). It is filed as physicochemical. The note with it: stock 2 mg/ml diluted 1:1, ambient temperature (typically 25°C), n=1; for Solubility, Acetate buffer pH 4: 100 mM acetate buffer pH 4.0; for Solubility, Acetate buffer pH 5: 100 mM acetate buffer pH 5.0; for Solubility, Histidine buffer pH 6: 100 mM histidine buffer pH 6.0; for Solubility, Histidine buffer pH 7: 100 mM histidine buffer pH 7.0; for Solubility, Phosphate buffer pH 6: 100 mM phosphate buffer pH 6.0; for Solubility, Phosphate buffer pH 7: 100 mM phosphate buffer pH 7.0; for Solubility, Phosphate buffer pH 7.5: 100 mM phosphate buffer pH7.5. An outline of the steps: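 Turbidimetric screen across pH 4.0–7.5 in 100 mM acetate, histidine and phosphate buffers. A 2 mg/ml peptide stock (pH 2.5) was diluted 1:1 into each, then A325 measured at ambient temperature; values ≤ 0.02 AU denoted solubility of 1 mg/ml or more.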

In data set [2] the target is T1, human calcitonin receptor (hCTR2) (Homo sapiens, UniProt P30988).
T1 construct: expressed in transfected cells
T1 sequence (P30988 25-474): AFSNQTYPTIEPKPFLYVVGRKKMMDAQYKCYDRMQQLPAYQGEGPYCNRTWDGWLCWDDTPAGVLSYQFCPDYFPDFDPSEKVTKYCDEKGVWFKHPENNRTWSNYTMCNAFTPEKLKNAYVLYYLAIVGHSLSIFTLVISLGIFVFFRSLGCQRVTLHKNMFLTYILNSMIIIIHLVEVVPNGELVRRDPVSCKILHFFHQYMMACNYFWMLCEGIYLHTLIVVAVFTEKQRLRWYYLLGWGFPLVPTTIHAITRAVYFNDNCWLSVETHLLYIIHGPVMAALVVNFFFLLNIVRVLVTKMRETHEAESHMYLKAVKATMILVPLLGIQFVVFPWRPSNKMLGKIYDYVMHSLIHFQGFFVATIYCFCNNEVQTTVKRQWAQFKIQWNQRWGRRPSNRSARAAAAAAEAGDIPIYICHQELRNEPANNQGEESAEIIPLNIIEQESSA
The experiment in a line: hCTR2 assay: induction of cAMP (AlphaScreen cAMP Assay kit) in COS7 cells expressing hCTR2. The format is cell-based. In short, it runs like this: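 cAMP read-out by AlphaScreen after cell lysis; EC50 and % efficacy vs pramlintide from 4-parameter logistic fitting. Agonist stimulation: hCTR2-COS7 stable cells, 15 min, 37° C, 100 µM IBMX, 0.1% casein, Tyrode/HEPES pH 7.4.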
On the technique in general: In Alpha technology, singlet oxygen from a donor bead excites a nearby acceptor bead.

As for `CC[C@H](C)[C@@H](C(=O)N[C@@H](CC(C)C)C(=O)N[C@@H](CO)C(=O)N[C@@H](CO)C(=O)N[C@H](C(=O)N[C@@H](CC(N)=O)C(=O)N[C@H](C(=O)NCC(=O)N[C@@H](CO)C(=O)N[C@@H](CC(N)=O)C(=O)N[C@H](C(=O)N1CCC[C@H]1C(N)=O)[C@@H](C)O)C(C)C)[C@@H](C)O)N(C)C(=O)[C@H](C)NC(=O)CN(C)C(=O)[C@H](Cc1ccccc1)NC(=O)[C@H](CC(N)=O)NC(=O)[C@H](CC(N)=O)NC(=O)[C@H](CO)NC(=O)[C@H](CO)NC(=O)[C@H](CCCNC(=N)N)NC(=O)[C@H](Cc1c[nH]cn1)NC(=O)[C@H](CC(C)C)NC(=O)[C@H](Cc1ccccc1)NC(=O)[C@H](CCC(=O)O)NC(=O)[C@H](C)NC(=O)[C@H](CC(C)C)NC(=O)[C@H](CCCNC(=N)N)NC(=O)[C@H](CCC(N)=O)NC(=O)[C@@H](NC(=O)[C@H](C)NC(=O)[C@@H]1CSSC[C@H](NC(=O)[C@H](CCCCN)NC(=O)[C@H](Cc2c[nH]cn2)NC(=O)CC[C@H](NC(=O)CCCCCCCCCCCCCCCCCCC(=O)O)C(=O)O)C(=O)N[C@@H](CC(N)=O)C(=O)N[C@@H]([C@@H](C)O)C(=O)N[C@@H](C)C(=O)N[C@@H]([C@@H](C)O)C(=O)N1)[C@@H](C)O` [Compound 88, [19CD]-isoGlu-HKC()NTATC()ATQRLAEFLHRSSNNF-Gly(Me)-A-Ile(Me)-LSSTNVGSNTP-NH2] ({C20 diacid-γGlu}-HKCNTATCATQRLAEFLHRSSNNF[Sar]A[NMeI]LSSTNVGSNTP-NH2; disulfide 3-8), in data set [1], the “Solubility, Acetate buffer pH 4” value was “SS (SS indicates solubility ≥ 1mg/ml)”; the “Solubility, Acetate buffer pH 5” value is on record as “SS (SS indicates solubility ≥ 1mg/ml)”; the “Solubility, Histidine buffer pH 6” value is given as “SS (SS indicates solubility ≥ 1mg/ml)”; the “Solubility, Histidine buffer pH 7” value is recorded as “SS (SS indicates solubility ≥ 1mg/ml)”. Also, in data set [1], the “Solubility, Phosphate buffer pH 6” value is given as “SS (SS indicates solubility ≥ 1mg/ml)”; the “Solubility, Phosphate buffer pH 7” value was “SS (SS indicates solubility ≥ 1mg/ml)”; the “Solubility, Phosphate buffer pH 7.5” value is listed as “SS (SS indicates solubility ≥ 1mg/ml)”. Also, in data set [2], the EC50 was determined as 0.069 nM.

For `CC[C@H](C)[C@@H](C(=O)N[C@@H](CC(C)C)C(=O)N[C@@H](CO)C(=O)N[C@@H](CO)C(=O)N[C@H](C(=O)N[C@@H](CC(N)=O)C(=O)N[C@H](C(=O)NCC(=O)N[C@@H](CO)C(=O)N[C@@H](CC(N)=O)C(=O)N[C@H](C(=O)N1CCC[C@H]1C(N)=O)[C@@H](C)O)C(C)C)[C@@H](C)O)N(C)C(=O)[C@H](C)NC(=O)CN(C)C(=O)[C@H](Cc1ccccc1)NC(=O)[C@H](CC(N)=O)NC(=O)[C@H](CC(N)=O)NC(=O)[C@H](CO)NC(=O)[C@H](CO)NC(=O)[C@H](CCCNC(=N)N)NC(=O)[C@H](Cc1c[nH]cn1)NC(=O)[C@H](CC(C)C)NC(=O)[C@H](Cc1ccccc1)NC(=O)[C@H](CCC(=O)O)NC(=O)[C@H](C)NC(=O)[C@H](CC(C)C)NC(=O)[C@H](CCCNC(=N)N)NC(=O)[C@H](CCC(N)=O)NC(=O)[C@@H](NC(=O)[C@H](C)NC(=O)[C@@H]1CSSC[C@H](NC(=O)[C@H](CCCNC(=N)N)NC(=O)CC[C@H](NC(=O)CCCCCCCCCCCCCCCCC(=O)O)C(=O)O)C(=O)N[C@@H](CC(N)=O)C(=O)N[C@@H]([C@@H](C)O)C(=O)N[C@@H](C)C(=O)N[C@@H]([C@@H](C)O)C(=O)N1)[C@@H](C)O` [Compound 89, [17CD]-isoGlu-RC()NTATC()ATQRLAEFLHRSSNNF-Gly(Me)-A-Ile(Me)-LSSTNVGSNTP-NH2] ({C18 diacid-γGlu}-RCNTATCATQRLAEFLHRSSNNF[Sar]A[NMeI]LSSTNVGSNTP-NH2; disulfide 2-7), in data set [1], the “Solubility, Acetate buffer pH 4” value is “SS (SS indicates solubility ≥ 1mg/ml)”; the “Solubility, Acetate buffer pH 5” value is “SS (SS indicates solubility ≥ 1mg/ml)”; the “Solubility, Histidine buffer pH 6” value is “SS (SS indicates solubility ≥ 1mg/ml)”; the “Solubility, Histidine buffer pH 7” value is given as “SS (SS indicates solubility ≥ 1mg/ml)”. Further, in data set [1], the “Solubility, Phosphate buffer pH 6” value is reported as “SS (SS indicates solubility ≥ 1mg/ml)”; the “Solubility, Phosphate buffer pH 7” value is on record as “SS (SS indicates solubility ≥ 1mg/ml)”; the “Solubility, Phosphate buffer pH 7.5” value is “SS (SS indicates solubility ≥ 1mg/ml)”. Besides, the EC50 in data set [2] was 0.054 nM.

With `CC[C@H](C)[C@@H](C(=O)N[C@@H](CC(C)C)C(=O)N[C@@H](CO)C(=O)N[C@@H](CO)C(=O)N[C@H](C(=O)N[C@@H](CC(N)=O)C(=O)N[C@H](C(=O)NCC(=O)N[C@@H](CO)C(=O)N[C@@H](CC(N)=O)C(=O)N[C@H](C(=O)N1CCC[C@H]1C(N)=O)[C@@H](C)O)C(C)C)[C@@H](C)O)N(C)C(=O)[C@H](C)NC(=O)CN(C)C(=O)[C@H](Cc1ccccc1)NC(=O)[C@H](CC(N)=O)NC(=O)[C@H](CC(N)=O)NC(=O)[C@H](CO)NC(=O)[C@H](CO)NC(=O)[C@H](CCCNC(=N)N)NC(=O)[C@H](Cc1c[nH]cn1)NC(=O)[C@H](CC(C)C)NC(=O)[C@H](Cc1ccccc1)NC(=O)[C@H](CCC(=O)O)NC(=O)[C@H](C)NC(=O)[C@H](CC(C)C)NC(=O)[C@H](CCCNC(=N)N)NC(=O)[C@H](CCC(N)=O)NC(=O)[C@@H](NC(=O)[C@H](C)NC(=O)[C@@H]1CSSC[C@H](NC(=O)[C@H](CCCNC(=N)N)NC(=O)CC[C@H](NC(=O)CCCCCCCCCCCCCCC(=O)O)C(=O)O)C(=O)N[C@@H](CC(N)=O)C(=O)N[C@@H]([C@@H](C)O)C(=O)N[C@@H](C)C(=O)N[C@@H]([C@@H](C)O)C(=O)N1)[C@@H](C)O` [Compound 90, [15CD]-isoGlu-RC()NTATC()ATQRLAEFLHRSSNNF-Gly(Me)-A-Ile(Me)-LSSTNVGSNTP-NH2] ({C16 diacid-γGlu}-RCNTATCATQRLAEFLHRSSNNF[Sar]A[NMeI]LSSTNVGSNTP-NH2; disulfide 2-7), in data set [1], the “Solubility, Acetate buffer pH 4” value is “SS (SS indicates solubility ≥ 1mg/ml)”; the “Solubility, Acetate buffer pH 5” value is “SS (SS indicates solubility ≥ 1mg/ml)”; the “Solubility, Histidine buffer pH 6” value is given as “SS (SS indicates solubility ≥ 1mg/ml)”; the “Solubility, Histidine buffer pH 7” value is “SS (SS indicates solubility ≥ 1mg/ml)”. Further, in data set [1], the “Solubility, Phosphate buffer pH 6” value is on record as “SS (SS indicates solubility ≥ 1mg/ml)”; the “Solubility, Phosphate buffer pH 7” value is given as “SS (SS indicates solubility ≥ 1mg/ml)”; the “Solubility, Phosphate buffer pH 7.5” value is “SS (SS indicates solubility ≥ 1mg/ml)”. The EC50 in data set [2] stood at 0.066 nM.

On to `CCCCCCCCCCCCCC(=O)N[C@@H](CCC(=O)N[C@@H](CCCNC(=N)N)C(=O)N[C@H]1CSSC[C@@H](C(=O)N[C@@H](C)C(=O)N[C@H](C(=O)N[C@@H](CCC(N)=O)C(=O)N[C@@H](CCCNC(=N)N)C(=O)N[C@@H](CC(C)C)C(=O)N[C@@H](C)C(=O)N[C@@H](CCC(=O)O)C(=O)N[C@@H](Cc2ccccc2)C(=O)N[C@@H](CC(C)C)C(=O)N[C@@H](Cc2c[nH]cn2)C(=O)N[C@@H](CCCNC(=N)N)C(=O)N[C@@H](CO)C(=O)N[C@@H](CO)C(=O)N[C@@H](CC(N)=O)C(=O)N[C@@H](CC(N)=O)C(=O)N[C@@H](Cc2ccccc2)C(=O)N(C)CC(=O)N[C@@H](C)C(=O)N(C)[C@H](C(=O)N[C@@H](CC(C)C)C(=O)N[C@@H](CO)C(=O)N[C@@H](CO)C(=O)N[C@H](C(=O)N[C@@H](CC(N)=O)C(=O)N[C@H](C(=O)NCC(=O)N[C@@H](CO)C(=O)N[C@@H](CC(N)=O)C(=O)N[C@H](C(=O)N2CCC[C@H]2C(N)=O)[C@@H](C)O)C(C)C)[C@@H](C)O)[C@@H](C)CC)[C@@H](C)O)NC(=O)[C@H]([C@@H](C)O)NC(=O)[C@H](C)NC(=O)[C@H]([C@@H](C)O)NC(=O)[C@H](CC(N)=O)NC1=O)C(=O)O` [Compound 91, [Tetradecanoyl]-isoGlu-RC()NTATC()ATQRLAEFLHRSSNNF-Gly(Me)-A-Ile(Me)-LSSTNVGSNTP-NH2] ({Myristoyl-γGlu}-RCNTATCATQRLAEFLHRSSNNF[Sar]A[NMeI]LSSTNVGSNTP-NH2; disulfide 2-7), for which, in data set [1], the “Solubility, Acetate buffer pH 4” value is “SS (SS indicates solubility ≥ 1mg/ml)”; the “Solubility, Acetate buffer pH 5” value is recorded as “SS (SS indicates solubility ≥ 1mg/ml)”; the “Solubility, Histidine buffer pH 6” value was “SS (SS indicates solubility ≥ 1mg/ml)”; the “Solubility, Histidine buffer pH 7” value is given as “SS (SS indicates solubility ≥ 1mg/ml)”. In data set [1], the “Solubility, Phosphate buffer pH 6” value was “SS (SS indicates solubility ≥ 1mg/ml)”; the “Solubility, Phosphate buffer pH 7” value is reported as “SS (SS indicates solubility ≥ 1mg/ml)”; the “Solubility, Phosphate buffer pH 7.5” value is given as “SS (SS indicates solubility ≥ 1mg/ml)”. Also, the EC50 in data set [2] worked out at 0.047 nM.

What is called EC50 is the concentration needed to bring the measured effect to its halfway point.
